“Also recorded” adds a separate entry of the source.
What follows are molecules tested against T1, purified recombinant perforin (Mus musculus, UniProt P10820) (assay: cell-based). Settings: lysis of Jurkat cells by purified recombinant perforin, 51Cr release, 0.1% BSA; average of at least three determinations.
T1 sequence (P10820 21-554): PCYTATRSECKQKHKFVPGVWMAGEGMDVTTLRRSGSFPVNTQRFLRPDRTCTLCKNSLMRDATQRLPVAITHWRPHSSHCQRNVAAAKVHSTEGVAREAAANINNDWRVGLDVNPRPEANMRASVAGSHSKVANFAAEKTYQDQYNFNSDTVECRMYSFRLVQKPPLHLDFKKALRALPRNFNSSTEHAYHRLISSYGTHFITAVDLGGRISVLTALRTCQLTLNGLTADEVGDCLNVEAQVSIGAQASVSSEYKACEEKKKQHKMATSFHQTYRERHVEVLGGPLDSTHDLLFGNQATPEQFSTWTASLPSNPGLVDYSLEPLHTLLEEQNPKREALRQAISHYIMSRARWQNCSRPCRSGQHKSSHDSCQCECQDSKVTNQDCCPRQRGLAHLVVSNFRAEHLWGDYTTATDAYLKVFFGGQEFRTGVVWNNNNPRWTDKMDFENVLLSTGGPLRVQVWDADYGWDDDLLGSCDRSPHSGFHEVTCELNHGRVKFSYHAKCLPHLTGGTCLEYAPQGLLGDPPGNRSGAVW
Format: cell-based
Experimental: The ability of the compounds to inhibit the lysis of nucleated (Jurkat T lymphoma) cells in the presence of 0.1% BSA was measured by release of ^51Cr label. Jurkat target cells were labeled by incubation in medium with 100 μCi ^51Cr for 1 h. The cells were then washed three times to remove unincorporated isotope and resuspended at 1 × 10^5 cells per milliliter in RPMI buffer supplemented with 0.1% BSA. […] Each data point was performed in triplicate, and an IC50 was calculated from the range of concentrations described above.
In the case of `O=C1NC(=S)N/C1=C/c1ccc(-c2ccccc2)s1` [compound 43], the “inhibition of Jurkat cell lysis, IC50” value is reported as “no detectable activity”.
`O=C1NC(=S)N/C1=C/c1ccc(-c2ccc3c(c2)CN(CCN2CCOCC2)C3=O)s1` [compound 130, (E,Z)-2-(2-Morpholinoethyl)-5-(5-((5-oxo-2-thioxoimidazolidin-4-ylidene)methyl)thiophen-2-yl)isoindolin-1-one] was tested, and the “inhibition of Jurkat cell lysis, IC50” value was “not reproducible; also recorded: variable”.

Same assay, conditions: lysis of Jurkat cells by purified recombinant perforin, 51Cr release, 0.1% BSA; average of at least three determinations; read-out: inhibition of Jurkat cell lysis, IC50
Work on `O=C1NC(=S)N/C1=C/c1ccc(-c2ccccc2)s1` [compound 43] yielded an IC50 of over 20 µM.
`O=C1NC(=S)N/C1=C/c1ccc(-c2ccccc2Cl)s1` [compound 44] was tested, and the IC50 was over 20 µM.
Work on `O=C1NC(=S)N/C1=C/c1ccc(-c2cccc(Cl)c2)s1` [compound 45] yielded an IC50 of 7.19 µM.
In the case of `O=C1NC(=S)N/C1=C/c1ccc(-c2ccc(Cl)cc2)s1` [compound 46], the IC50 is reported as 5.22 µM.
In the case of `O=C1NC(=S)N/C1=C/c1ccc(-c2cccc(F)c2)s1` [compound 47], the IC50 is reported as 10.8 µM.
`O=C1NC(=S)N/C1=C/c1ccc(-c2ccc(F)cc2)s1` [compound 48] was tested, and the IC50 was 6.69 µM.
Work on `O=C1NC(=S)N/C1=C/c1ccc(-c2ccc(F)c(F)c2)s1` [compound 49] yielded an IC50 of 4.59 µM.
For `O=C1NC(=S)N/C1=C/c1ccc(-c2cccc(C(F)(F)F)c2)s1` [compound 50], the IC50 was 5.66 µM.
`O=C1NC(=S)N/C1=C/c1ccc(-c2ccc(C(F)(F)F)cc2)s1` [compound 51] was tested, and the IC50 was 4.66 µM.
With `N#Cc1cccc(-c2ccc(/C=C3/NC(=S)NC3=O)s2)c1` [compound 52] the IC50 was 9.68 µM.
`O=C1NC(=S)N/C1=C/c1ccc(-c2ccc(O)cc2)s1` [compound 53] was tested, and the IC50 was 7.72 µM.
Molecule `O=C1NC(=S)N/C1=C/c1ccc(-c2ccc(Cl)c(C(F)(F)F)c2)s1` [compound 54] has an IC50 of 3.09 µM.
With `O=C1NC(=S)N/C1=C/c1ccc(-c2ccc(Br)cc2)s1` [compound 55] the IC50 was 1.69 µM.
With `CSc1ccc(-c2ccc(/C=C3/NC(=S)NC3=O)s2)cc1` [compound 56] the IC50 was 1.15 µM.
Molecule `CC(=O)c1ccc(-c2ccc(/C=C3/NC(=S)NC3=O)s2)cc1` [compound 57] has an IC50 of 1.67 µM.
In the case of `CC(=O)OCc1ccc(-c2ccc(/C=C3/NC(=S)NC3=O)s2)cc1` [compound 58, (E,Z)-4-(5-((5-Oxo-2-thioxoimidazolidin-4-ylidene)methyl)thiophen-2-yl)benzyl Acetate], the IC50 is reported as 3.04 µM.
Molecule `COC(=O)c1ccc(-c2ccc(/C=C3/NC(=S)NC3=O)s2)cc1` [compound 59] has an IC50 of 1.62 µM.
`NC(=O)c1cccc(-c2ccc(/C=C3/NC(=S)NC3=O)s2)c1` [compound 60] was tested, and the IC50 was 0.79 µM.
For `NC(=O)c1ccc(-c2ccc(/C=C3/NC(=S)NC3=O)s2)cc1` [compound 61], the IC50 was 1.56 µM.
`COC(=O)c1ccc(-c2ccc(/C=C3/NC(=S)NC3=O)s2)cc1C` [compound 62] was tested, and the IC50 was 3.03 µM.
In the case of `CS(=O)(=O)c1ccc(-c2ccc(/C=C3/NC(=S)NC3=O)s2)cc1` [compound 63], the IC50 is reported as 13.8 µM.
Work on `CS(=O)(=O)Nc1ccc(-c2ccc(/C=C3/NC(=S)NC3=O)s2)cc1` [compound 64] yielded an IC50 of 7.7 µM.
`O=C1NC(=S)N/C1=C/c1ccc(-c2cccnc2)s1` [compound 65] was tested, and the IC50 was 12.9 µM.
`O=C1NC(=S)N/C1=C/c1ccc(-c2ccncc2)s1` [compound 66] gave an IC50 of 10.1 µM.
`CNC(=O)c1ccc(-c2ccc(/C=C3/NC(=S)NC3=O)s2)cc1` [compound 67, (E,Z)-N-Methyl-4-(5-((5-oxo-2-thioxoimidazolidin-4-ylidene)methyl)thiophen-2-yl)benzamide] gave an IC50 of 4.53 µM.
Molecule `CN(C)C(=O)c1ccc(-c2ccc(/C=C3/NC(=S)NC3=O)s2)cc1` [compound 68] has an IC50 of 6.93 µM.
Molecule `O=C1NC(=S)N/C1=C/c1ccc(-c2ccc(C(=O)N3CCOCC3)cc2)s1` [compound 69] has an IC50 of over 20 µM.
`O=C1NC(=S)N/C1=C/c1ccc(-c2ccc(C(=O)NCCN3CCOCC3)cc2)s1` [compound 70] gave an IC50 of over 20 µM.
`O=C1NC(=S)N/C1=C/c1ccc(-c2ccc(C(=O)NCCCN3CCOCC3)cc2)s1` [compound 71] showed an IC50 of 8.13 µM.
For `O=C1NC(=S)N/C1=C/c1ccc(-c2ccc(C(=O)NCCO)cc2)s1` [compound 72], the IC50 was 3.64 µM.
Molecule `O=C1NC(=S)N/C1=C/c1ccc(-c2ccc(C(=O)NCCCO)cc2)s1` [compound 73] has an IC50 of 4.35 µM.
`CC(O)CNC(=O)c1ccc(-c2ccc(/C=C3/NC(=S)NC3=O)s2)cc1` (centres unmarked) [compound 74] showed an IC50 of 6.5 µM.
`O=C1NC(=S)N/C1=C/c1ccc(-c2ccc(C(=O)NCC(O)CO)cc2)s1` (centres unmarked) [compound 75] gave an IC50 of 2.44 µM.
`CCN1Cc2cc(-c3ccc(/C=C4/NC(=S)NC4=O)s3)ccc2C1=O` [compound 120] gave an IC50 of 0.6 µM.
Work on `CCCN1Cc2cc(-c3ccc(/C=C4/NC(=S)NC4=O)s3)ccc2C1=O` [compound 121] yielded an IC50 of 1.52 µM.
In the case of `CCCCN1Cc2cc(-c3ccc(/C=C4/NC(=S)NC4=O)s3)ccc2C1=O` [compound 122], the IC50 is reported as 1.18 µM.
With `CC(C)N1Cc2cc(-c3ccc(/C=C4/NC(=S)NC4=O)s3)ccc2C1=O` [compound 123] the IC50 was 4.42 µM.
In the case of `CC(=O)OCCN1Cc2cc(-c3ccc(/C=C4/NC(=S)NC4=O)s3)ccc2C1=O` [compound 124, (E,Z)-2-(1-Oxo-5-(5-((5-oxo-2-thioxoimidazolidin-4-ylidene)methyl)thiophen-2-yl)isoindolin-2-yl)ethyl Acetate], the IC50 is reported as 1.17 µM.
`O=C1NC(=S)N/C1=C/c1ccc(-c2ccc3c(c2)CN(CC(O)CO)C3=O)s1` (centres unmarked) [compound 127] was tested, and the IC50 was 1.26 µM.
For `CC(=O)N1Cc2cc(-c3ccc(/C=C4/NC(=S)NC4=O)s3)ccc2C1=O` [compound 128], the IC50 was 0.93 µM.
`CN(C)CCCN1Cc2cc(-c3ccc(/C=C4/NC(=S)NC4=O)s3)ccc2C1=O` [compound 131, (E,Z)-2-(3-(Dimethylamino)propyl)-5-(5-((5-oxo-2-thioxoimidazolidin-4-ylidene)methyl)thiophen-2-yl)isoindolin-1-one] gave an IC50 of over 20 µM.
Molecule `O=C1NC(=S)N/C1=C/c1ccc(-c2ccc3c(c2)CN(CCCN2CCCCC2)C3=O)s1` [compound 132] has an IC50 of 11.8 µM.
Molecule `CN1CCN(CCCN2Cc3cc(-c4ccc(/C=C5/NC(=S)NC5=O)s4)ccc3C2=O)CC1` [compound 133] has an IC50 of over 20 µM.
Molecule `O=C1NC(=S)N/C1=C/c1ccc(-c2ccc3c(c2)CN(CCCN2CCCC2)C3=O)s1` [compound 134] has an IC50 of 8.93 µM.
Molecule `O=C1NC(=S)N/C1=C/c1ccc(-c2ccc3c(c2)C(=O)NC3)s1` [compound 165] has an IC50 of 1.38 µM.
With `CN1Cc2ccc(-c3ccc(/C=C4/NC(=S)NC4=O)s3)cc2C1=O` [compound 166, (E,Z)-2-Methyl-6-(5-((5-oxo-2-thioxoimidazolidin-4-ylidene)methyl)thiophen-2-yl)isoindolin-1-one] the IC50 was 1.89 µM.
Molecule `CN1CCc2cc(-c3ccc(/C=C4/NC(=S)NC4=O)s3)ccc2C1=O` [compound 169] has an IC50 of 2.33 µM.
Molecule `CN1CCc2ccc(-c3ccc(/C=C4/NC(=S)NC4=O)s3)cc2C1=O` [compound 170] has an IC50 of 4.76 µM.
For `CC(=O)c1cn(C)c2ccc(-c3ccc(/C=C4\NC(=S)NC4=O)s3)cc12` [compound 178], the IC50 was 5.3 µM.
In the case of `O=C1NC(=S)N/C1=C\c1cc(-c2ccc3c(c2)CNC3=O)cs1` [compound 204], the IC50 is reported as 3 µM.
With `O=C1NC(=S)N/C1=C/c1ccc(-c2ccc3c(c2)CNC3=O)cc1` [compound 205] the IC50 was 5.55 µM.
`O=C1NC(=S)N/C1=C\c1cccc(-c2ccc3c(c2)CNC3=O)c1` [compound 206] gave an IC50 of 3.44 µM.
`O=C1NC(=S)N/C1=C/c1cc2ccc(-c3ccc4c(c3)CNC4=O)cc2[nH]1` [compound 208] gave an IC50 of 1.58 µM.
Work on `O=C1NC(=S)N/C1=C/c1cc2cc(-c3ccc4c(c3)CNC4=O)ccc2[nH]1` [compound 209] yielded an IC50 of 2.5 µM.
Work on `O=C1NC(=S)N/C1=C/c1cc2ccc(-c3ccc4c(c3)CCNC4=O)cc2[nH]1` [compound 210] yielded an IC50 of 1.66 µM.
With `O=C1NC(=S)N/C1=C/c1cc2cc(-c3ccc4c(c3)CCNC4=O)ccc2[nH]1` [compound 211] the IC50 was 1.45 µM.
`O=C1NC(=S)/C(=C/c2ccc3cc(-c4ccc5c(c4)CCNC5=O)ccc3n2)N1` [compound 212] was tested, and the IC50 was 2.55 µM.

From paper PMC3865801 (Journal of Medicinal Chemistry, 2013)
